Test results as given in ChEMBL document CHEMBL3885861, “Open TG-GATES”.

Species on record: Rattus norvegicus
Assay: Open TG-GATES - Regimen: Single
Format: toxicity, organism-based, Sprague-Dawley
Design: regimen Single, gender Male, age 6 weeks
Conditions: in vivo, po, 250 mg/kg, route gavage, dose level High; for APTT / Bas / Eos / Fbg / Hb / Ht / Lym / MCH / MCHC / MCV / Mono / Neu / PT / Plat / RBC / Ret / WBC: tissue Blood; for KIDNEY_L / KIDNEY_R / KIDNEY_TOTAL: tissue Kidney; for LIVER: tissue Liver; for A/G / ALP / ALT / AST / BUN / CRE / Ca / Cl / DBIL / GLC / IP / K / LDH / Na / PL / RALB / TBIL / TC / TG / TP / gamma-GTP: tissue Plasma

CCSCC[C@H](N)C(=O)O [ETHIONINE]
TERMINAL_BW (3 h): 215.1 g
APTT (3 h): 18.5 s
Bas (3 h): 0%
Eos (3 h): 1%
Fbg (3 h): 205.8 mg/dL
Hb (3 h): 13.6 g/dL
Ht (3 h): 40%
Lym (3 h): 74%
MCH (3 h): 21.4 pg
MCHC (3 h): 34%
MCV (3 h): 62.9 fL
Mono (3 h): 2.6%
Neu (3 h): 20.6%
PT (3 h): 12.5 s
Plat (3 h): 117.7 x10_4/uL
RBC (3 h): 635.6 x10_4/ul
Ret (3 h): 7%
WBC (3 h): 90.5 x10_2/uL
KIDNEY_L (3 h): 1 g
KIDNEY_R (3 h): 1 g
KIDNEY_TOTAL (3 h): 2 g
LIVER (3 h): 9.7 g
A/G (3 h): 1.4
ALP (3 h): 1004.6 IU/L
ALT (3 h): 37.6 IU/L
AST (3 h): 68 IU/L
BUN (3 h): 10.6 mg/dL
CRE (3 h): 0.4 mg/dL
Ca (3 h): 10.3 mg/dL
Cl (3 h): 100.8 meq/L
DBIL (3 h): 0.054 mg/dL
GLC (3 h): 210.4 mg/dL
IP (3 h): 9.8 mg/dL
K (3 h): 3.8 meq/L
LDH (3 h): 183.6 IU/L
Na (3 h): 139.6 meq/L
PL (3 h): 127.8 mg/dL
RALB (3 h): 3.2 g/dL
TBIL (3 h): 0.1 mg/dL
TC (3 h): 71 mg/dL
TG (3 h): 43.4 mg/dL
TP (3 h): 5.4 g/dL
gamma-GTP (3 h): 1.2 IU/L
TERMINAL_BW (6 h): 215.3 g
APTT (6 h): 19.4 s
Bas (6 h): 0%
Eos (6 h): 1%
Fbg (6 h): 203.2 mg/dL
Hb (6 h): 13 g/dL
Ht (6 h): 38.2%
Lym (6 h): 76%
MCH (6 h): 21.4 pg
MCHC (6 h): 34.1%
MCV (6 h): 62.6 fL
Mono (6 h): 2.8%
Neu (6 h): 19.2%
PT (6 h): 13.1 s
Plat (6 h): 122.2 x10_4/uL
RBC (6 h): 610.4 x10_4/ul
Ret (6 h): 7.1%
WBC (6 h): 98.9 x10_2/uL
KIDNEY_L (6 h): 1 g
KIDNEY_R (6 h): 1 g
KIDNEY_TOTAL (6 h): 1.9 g
LIVER (6 h): 9.2 g
A/G (6 h): 1.3
ALP (6 h): 809.2 IU/L
ALT (6 h): 33.8 IU/L
AST (6 h): 64.2 IU/L
BUN (6 h): 10.4 mg/dL
CRE (6 h): 0.4 mg/dL
Ca (6 h): 10.2 mg/dL
Cl (6 h): 102 meq/L
DBIL (6 h): 0.058 mg/dL
GLC (6 h): 198.8 mg/dL
IP (6 h): 9.6 mg/dL
K (6 h): 3.9 meq/L
LDH (6 h): 213.8 IU/L
Na (6 h): 139 meq/L
PL (6 h): 116.6 mg/dL
RALB (6 h): 3 g/dL
TBIL (6 h): 0.1 mg/dL
TC (6 h): 64.6 mg/dL
TG (6 h): 44.4 mg/dL
TP (6 h): 5.3 g/dL
gamma-GTP (6 h): 1.6 IU/L
TERMINAL_BW (9 h): 212.6 g
APTT (9 h): 20.5 s
Bas (9 h): 0%
Eos (9 h): 1%
Fbg (9 h): 214.2 mg/dL
Hb (9 h): 13.3 g/dL
Ht (9 h): 39.1%
Lym (9 h): 73.6%
MCH (9 h): 21.2 pg
MCHC (9 h): 34.2%
MCV (9 h): 62 fL
Mono (9 h): 3.2%
Neu (9 h): 21.2%
PT (9 h): 13.3 s
Plat (9 h): 127.2 x10_4/uL
RBC (9 h): 630.2 x10_4/ul
Ret (9 h): 7%
WBC (9 h): 72.8 x10_2/uL
KIDNEY_L (9 h): 1 g
KIDNEY_R (9 h): 1 g
KIDNEY_TOTAL (9 h): 2 g
LIVER (9 h): 9 g
A/G (9 h): 1.6
ALP (9 h): 774 IU/L
ALT (9 h): 29.8 IU/L
AST (9 h): 58.4 IU/L
BUN (9 h): 8 mg/dL
CRE (9 h): 0.3 mg/dL
Ca (9 h): 10.4 mg/dL
Cl (9 h): 101.4 meq/L
DBIL (9 h): 0.072 mg/dL
GLC (9 h): 199 mg/dL
IP (9 h): 9.3 mg/dL
K (9 h): 3.6 meq/L
LDH (9 h): 195 IU/L
Na (9 h): 139.6 meq/L
PL (9 h): 111.2 mg/dL
RALB (9 h): 3.4 g/dL
TBIL (9 h): 0.1 mg/dL
TC (9 h): 57.2 mg/dL
TG (9 h): 77.4 mg/dL
TP (9 h): 5.6 g/dL
gamma-GTP (9 h): 1.2 IU/L
TERMINAL_BW (24 h): 221.6 g
APTT (24 h): 22 s
Bas (24 h): 0%
Eos (24 h): 1%
Fbg (24 h): 210.4 mg/dL
Hb (24 h): 13.9 g/dL
Ht (24 h): 41%
Lym (24 h): 74.4%
MCH (24 h): 21.3 pg
MCHC (24 h): 34%
MCV (24 h): 62.5 fL
Mono (24 h): 5.8%
Neu (24 h): 16.8%
PT (24 h): 14.4 s
Plat (24 h): 116 x10_4/uL
RBC (24 h): 655 x10_4/ul
Ret (24 h): 6.3%
WBC (24 h): 94.1 x10_2/uL
KIDNEY_L (24 h): 1 g
KIDNEY_R (24 h): 1 g
KIDNEY_TOTAL (24 h): 2 g
LIVER (24 h): 10.6 g
A/G (24 h): 1.6
ALP (24 h): 988 IU/L
ALT (24 h): 39 IU/L
AST (24 h): 74.4 IU/L
BUN (24 h): 16 mg/dL
CRE (24 h): 0.4 mg/dL
Ca (24 h): 10.6 mg/dL
Cl (24 h): 101.4 meq/L
DBIL (24 h): 0.1 mg/dL
GLC (24 h): 198.2 mg/dL
IP (24 h): 8.8 mg/dL
K (24 h): 3.7 meq/L
LDH (24 h): 211 IU/L
Na (24 h): 140 meq/L
PL (24 h): 122.6 mg/dL
RALB (24 h): 3.4 g/dL
TBIL (24 h): 0.2 mg/dL
TC (24 h): 47.2 mg/dL
TG (24 h): 144 mg/dL
TP (24 h): 5.6 g/dL
gamma-GTP (24 h): 1.2 IU/L
